We go through two compounds from patent US20060069132A1, “Azolecarboxamide herbicides” (priority 2004, published 2006).

One assay concerns winter barley. Description: Test F pre-/postemergence herbicide test. Type of assay: in vivo, Hordeum vulgare. An excerpt: Seeds of plant species selected from annual blugrass (Poa annua L.), blackgrass (Alopecurus myosuroides Huds.), catchweed bedstraw (Gallium aparine L.), common chickweed (Stellaria media (L.) Vill./Cyr.), downy bromegrass (Bromus tectorum L.), green foxtail (Setaria viridis (L.) Beauv.), Italian ryegrass (Lolium multiflorum Lam.), kochia (Kochia scoparia (L.). Schrad.), lambsquarters (Chenopodium album L.), littleseed canarygrass (Phalaris minor Retz.), pigweed (Amaranthus retroflexus L.), Russian thistle (Salsola kali L. ssp. Ruthenica (Iljin) Soo), wild buckwheat (Polygonum convolvulus L.), wild mustard (Sinapis arvensis L.), wild oat (Avena fatua L.), windgrass (Apera spica-venti (L.) Beauv.), winter barley (Hordeum vulgare L.), and wheat (Triticum aestivum L.) were planted and treated preemergence with test chemicals formulated in a non-phytotoxic solvent mixture which included a surfactant.
At the same time, plants selected from these crop and weed species were treated with postemergence applications of some of the test chemicals formulated in the same manner. Plants ranged in height from 2 to 18 cm (1- to 4-leaf stage) for postemergence treatments. Treated plants and controls were maintained in a greenhouse for 12 to 14 days, after which time all species were compared to controls and visually evaluated. Plant response ratings, summarized in Table F, are based on a scale of 0 to 100 where 0 is no effect and 100 is complete control. A dash (-) response means no test result.

A further assay deals with wheat cv. Retical. Description: Test H safening on wheat by naphthalic anhydride seed treatment, pre-/postemergence. Details: key to Response of wheat, Without naphthalic anhydride seed treatment: 0 = no effect, 100 = complete plant death, vs untreated control. Type of assay: in vivo, Triticum aestivum. How it is done:
This test evaluated the safening of compounds of the invention on wheat (Triticum aestivumL.) cv. ‘Retical’ by seed treatment with naphthalic anhydride. Some of the wheat seed was treated with napthalic anhydride as a 1% by weight seed dressing. The wheat seed were planted in pots containing pasteurized Sassafras sandy loam soil. For postemergence testing the plants were grown 8 days to the 2-leaf stage at time of treatment. Preemergence treatments were applied the same day that the seeds were planted. Treatments were applied by spraying the test compounds formulated in a non-phytotoxic solvent mixture, using a flat fan nozzle and a spray volume of 280 L/ha. The preemergence treatments were triply replicated and the results subsequently averaged. The pots were placed on a growth chamber bench using a complete randomized block design for the preemergence test except for the first replicate, which was unrandomized. The plants were grown in the growth chamber and watered as needed with a dilute nutrient solution containing 200 ppm of N. Illumination was provided by fluorescent lamps giving 200-300 μE/m^2/S of photosynthetically active radiation over a 14-hour photoperiod. The temperature was maintained at 23±2° C. during the day and 17±2° C. at night. The effects of the treatments were rated 25 days after preemergence treatment and 14 days after postemergence treatment. The plant response was visually rated in comparison to untreated controls using a scale of 0 to 100, with 0 representing no effect and 100 representing complete plant death. The results for the compounds tested preemergence are listed in Table H1, and the results for the compounds tested postemergence are listed in Table H2.

In assay [1] the test system is corn (maize) cv. Pioneer 33G26. As to the kind of experiment: Test G safening on corn by naphthalic anhydride seed treatment, preemergence. Type of assay: in vivo, Zea mays. The text has this:
This test evaluated the safening of compounds of the invention on corn (maize; Zea mays L.) cv. ‘Pioneer 33G26’ by seed treatment with naphthalic anhydride (1,8-naphthalic anhydride). All corn seed had been first treated with fludioxonil and metaxyl applied at the manufacturer's recommended rate as per the Pioneer 33G26 label. Some of the corn seed were subsequently also treated with naphthalic anhydride as a 1% by weight seed dressing. The corn seed were planted in pots containing pasteurized Sassafras sandy loam soil, and then treatments were applied preemergence the same day. Treatments were applied by spraying the test compounds formulated in a non-phytotoxic solvent mixture, using a flat fan nozzle and a spray volume of 280 L/ha. The treatments were triply replicated and the results subsequently averaged. The pots were placed on a greenhouse bench using a complete randomized block design except for the first replicate, which was unrandomized. The plants were grown in the greenhouse and watered as needed with a dilute nutrient solution containing 200 ppm of N. Illumination was daylight supplemented by artificial sources to maintaining a photoperiod of 16 hours. The temperature was maintained at 28±2° C. during the day and 23±2° C. at night. The plant response was visually rated 25 days after treatment in comparison to untreated controls using a scale of 0 to 100, with 0 representing no effect and 100 representing complete plant death.

As to `CCn1nc(C(C)(C)C)cc1C(=O)Nc1cc(C(=O)OC(C)C)c(F)cc1F` [Compound 248], the “Plant response rating (0-100), Barley, Winter” value in the assay with winter barley (Postemergence, 31 g ai/ha) is given as 25; in the assay on winter barley (Postemergence, 62 g ai/ha), 30; in the assay on winter barley (Postemergence, 125 g ai/ha), 30; in the assay with winter barley (Postemergence, 250 g ai/ha) it was 40; with winter barley (Preemergence, 31 g ai/ha), 0; with winter barley (Preemergence, 62 g ai/ha) it was 0. Further, the “Plant response rating (0-100), Barley, Winter” value turned out to be 0 with winter barley (Preemergence, 125 g ai/ha) and 35 with winter barley (Preemergence, 250 g ai/ha).
For `CCn1nc(C(C)(C)C)cc1C(=O)Nc1cc(C(=O)N(C)C)ccc1F` [Compound 6, N-[5-[(dimethylamino)carbonyl]-2-fluorophenyl]-3-(1,1-dimethylethyl)-1-ethyl-1H-pyrazole-5-carboxamide], the “Response of wheat, With 1% naphthalic anhydride seed treatment” value was 65 with wheat cv. Retical (postemergence, 62 g a.i./ha); 75 in the assay on wheat cv. Retical (postemergence, 125 g a.i./ha); 77 with wheat cv. Retical (preemergence, 62 g a.i./ha); 100 in the assay with wheat cv. Retical (preemergence, 125 g a.i./ha). For the same compound, the “Response of wheat, Without naphthalic anhydride seed treatment” value with wheat cv. Retical (postemergence, 62 g a.i./ha) is reported as 75; with wheat cv. Retical (postemergence, 125 g a.i./ha), 75; in the assay with wheat cv. Retical (preemergence, 62 g a.i./ha), 99; in the assay on wheat cv. Retical (preemergence, 125 g a.i./ha), 100. Besides, the “Response of corn, With 1% naphthalic anhydride seed treatment” value was 60 in assay [1] (62 g a.i./ha), 62 in assay [1] (125 g a.i./ha), 78 in assay [1] (250 g a.i./ha) and 70 in assay [1] (500 g a.i./ha). Also, the “Response of corn, Without naphthalic anhydride seed treatment” value was 65 in assay [1] (62 g a.i./ha), 68 in assay [1] (125 g a.i./ha), 88 in assay [1] (250 g a.i./ha) and 92 in assay [1] (500 g a.i./ha).
